# Measured values taken from PubChem BioAssay AID342 (DTP/NCI, 2004).
# Where “and” joins values, the source holds several entries; their conditions need not be identical. Equal entries are not always repeated. Numbered stars: 1 amine (or outer) side, 2 acyl side, 3 side chain; on linkers, the order of the positions; unused ones are H or OH. Bridge positions count the residues as written; N and C are the ends. Square brackets hold non-standard residues; d marks the D form. Peptide text beside a SMILES is read from it. I, II: the chains in the order shown. Actinocin(9to1) = Cc1c2oc3c(C)ccc(C(=O)[*:1])c3nc-2c(C(=O)[*:2])c(N)c1=O; aThr = C[C@H](O)[C@H](N)C(=O)O; NMeV = CN[C@H](C(=O)O)C(C)C; Sar = CNCC(=O)O
# System: Swiss mice, Sarcoma 180 sc, mean tumor weight T/C
# Test: NCI In Vivo Anticancer Drug Screen. Data for tumor model Sarcoma 180 (subcutaneous) in Swiss mice
# Conditions: endpoint: mean tumor weight, higher = larger tumour
# Procedure, shortened: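 Readout is the ratio of treated-group measurement to vehicle-control measurement (T/C), based on survival or tumor size in mice carrying transplanted tumors.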
# [1] = dose: 125.0 mg/kg/injection, schedule: Q01DX007 (ip), vehicle: carboxymethylcellulose (CMC)
# [2] = dose: 250.0 mg/kg/injection, schedule: Q01DX007 (ip), vehicle: carboxymethylcellulose (CMC)
# [3] = dose: 1000.0 mg/kg/injection, schedule: Q01DX007 (ip), vehicle: carboxymethylcellulose (CMC)
smiles,measurement,setting,value
O=C(N[C@H](CO)[C@H](O)c1ccc([N+](=O)[O-])cc1)C(Cl)Cl,T/C,[1],99 % of control
same,T/C,[2],111 % of control and 112 % of control
same,T/C,"dose: 375.0 mg/kg/injection, schedule: Q#A X014 (ip), vehicle: carboxymethylcellulose (CMC)",45 % of control
same,T/C,"dose: 400.0 mg/kg/injection, schedule: Q01DX007 (ip), vehicle: carboxymethylcellulose (CMC)",76 % of control
same,T/C,"dose: 666.66 mg/kg/injection, schedule: Q01DX007 (ip), vehicle: carboxymethylcellulose (CMC)",105 % of control
same,T/C,[3],97 % of control
NNc1nnc(NN)c2ccccc12,T/C,"dose: 31.25 mg/kg/injection, schedule: Q01DX007 (ip), vehicle: saline",167 % of control
same,T/C,"dose: 62.5 mg/kg/injection, schedule: Q01DX007 (ip), vehicle: saline",176 % of control
same,T/C,"dose: 125.0 mg/kg/injection, schedule: Q01DX007 (ip), vehicle: saline",119 % of control
CS(=O)(=O)OCC(O)C(O)COS(C)(=O)=O (stereo not given),T/C,[1],74 % of control
same,T/C,[2],65 % of control
same,T/C,"dose: 500.0 mg/kg/injection, schedule: Q01DX007 (ip), vehicle: carboxymethylcellulose (CMC)",51 % of control
same,T/C,[3],45 % of control
CC1CN1P(=O)(N1CCCC1)N1CC1C (stereo not given),T/C,"dose: 15.5 mg/kg/injection, schedule: Q#A X014 (ip), vehicle: saline",27 % of control and 48 % of control
same,T/C,"dose: 23.5 mg/kg/injection, schedule: Q#A X014 (ip), vehicle: saline",4 % of control
same,T/C,"dose: 31.0 mg/kg/injection, schedule: Q01DX007 (ip), vehicle: saline",77 % of control
same,T/C,"dose: 47.0 mg/kg/injection, schedule: Q01DX007 (ip), vehicle: saline",100 % of control
same,T/C,"dose: 70.0 mg/kg/injection, schedule: Q01DX007 (ip), vehicle: saline",50 % of control
COc1ccc2c(=O)oc3c(OC)cc(CCN(C)C)c4c(=O)oc1c2c34,T/C,"dose: 0.8 mg/kg/injection, schedule: Q01DX007 (ip), vehicle: water",113 % of control
same,T/C,"dose: 1.6 mg/kg/injection, schedule: Q01DX007 (ip), vehicle: water",77 % of control
same,T/C,"dose: 3.2 mg/kg/injection, schedule: Q01DX007 (ip), vehicle: water",108 % of control
same,T/C,"dose: 6.3 mg/kg/injection, schedule: Q01DX007 (ip), vehicle: water",86 % of control
CC(C)CCCCCCCCCCCCC(=O)NCC(=O)NC1C(O)C(O)C(Nc2ncnc3nc[nH]c23)OC1C(O)CO (stereo not given),T/C,"dose: 0.3 mg/kg/injection, schedule: Q## X000 (ip), vehicle: carboxymethylcellulose (CMC)",63 % of control
same,T/C,"dose: 0.44 mg/kg/injection, schedule: Q## X000 (ip), vehicle: carboxymethylcellulose (CMC)",61 % of control
same,T/C,"dose: 0.6 mg/kg/injection, schedule: Q01DX007 (ip), vehicle: carboxymethylcellulose (CMC)",58 % of control and 70 % of control
same,T/C,"dose: 0.66 mg/kg/injection, schedule: Q## X000 (ip), vehicle: carboxymethylcellulose (CMC)",53 % of control
same,T/C,"dose: 0.9 mg/kg/injection, schedule: Q01DX007 (ip), vehicle: carboxymethylcellulose (CMC)",36 % of control and 56 % of control
same,T/C,"dose: 1.0 mg/kg/injection, schedule: Q## X000 (ip), vehicle: carboxymethylcellulose (CMC)",36 % of control
same,T/C,"dose: 1.35 mg/kg/injection, schedule: Q01DX007 (ip), vehicle: carboxymethylcellulose (CMC)",82 % of control
O=C(CCN1CC1)OCCOC(=O)CCN1CC1,T/C,"dose: 4.0 mg/kg/injection, schedule: Q#A X014 (ip), vehicle: methylcellulose (MC)",44 % of control
same,T/C,"dose: 6.0 mg/kg/injection, schedule: Q#A X014 (ip), vehicle: methylcellulose (MC)",60 % of control
same,T/C,"dose: 9.0 mg/kg/injection, schedule: Q#A X014 (ip), vehicle: methylcellulose (MC)",50 % of control
CC(=O)OCC(=O)[C@@]1(O)CC[C@H]2[C@@H]3CCC4=CC(=O)CC[C@]4(C)[C@H]3[C@@H](O)C[C@@]21C,T/C,"dose: 12.5 mg/kg/injection, schedule: Q#A X014 (ip), vehicle: steriod suspending solution",70 % of control
same,T/C,"dose: 25.0 mg/kg/injection, schedule: Q#A X014 (ip), vehicle: steriod suspending solution",88 % of control
same,T/C,"dose: 50.0 mg/kg/injection, schedule: Q#A X014 (ip), vehicle: steriod suspending solution",57 % of control
CC(=O)OC/N=[N+](/C)[O-],T/C,"dose: 4.68 mg/kg/injection, schedule: Q01DX007 (ip), vehicle: saline",84 % of control
same,T/C,"dose: 9.37 mg/kg/injection, schedule: Q01DX007 (ip), vehicle: saline",54 % of control
"Cc1c2oc3c(C)ccc(C(=O)N[C@@H]4C(=O)N[C@H](C(C)C)C(=O)N5CCC[C@H]5C(=O)N(C)CC(=O)N(C)[C@@H](C(C)C)C(=O)O[C@H]4C)c3nc-2c(C(=O)N[C@@H]2C(=O)N[C@H](C(C)C)C(=O)N3CCC[C@H]3C(=O)N(C)CC(=O)N(C)[C@@H](C(C)C)C(=O)O[C@H]2C)c(N)c1=O (I: [aThr][dV]P[Sar][NMeV] / II: [aThr][dV]P[Sar][NMeV]; ester I:1-I:C, II:1-II:C; linker I:N-II:N via Actinocin(9to1))",T/C,"dose: 4.0 mg/kg/injection, schedule: Q#A X014 (ip), vehicle: carboxymethylcellulose (CMC)",105 % of control
same,T/C,"dose: 7.5 mg/kg/injection, schedule: Q#A X014 (ip), vehicle: carboxymethylcellulose (CMC)",71 % of control
same,T/C,"dose: 12.0 mg/kg/injection, schedule: Q#A X014 (ip), vehicle: carboxymethylcellulose (CMC)",70 % of control
same,T/C,"dose: 15.0 mg/kg/injection, schedule: Q#A X014 (ip), vehicle: carboxymethylcellulose (CMC)",47 % of control and 71 % of control
same,T/C,"dose: 20.0 mg/kg/injection, schedule: Q#A X014 (ip), vehicle: carboxymethylcellulose (CMC)",51 % of control
same,T/C,"dose: 30.0 mg/kg/injection, schedule: Q#A X014 (ip), vehicle: carboxymethylcellulose (CMC)",13 % of control and 24 % of control
CC(=O)OCC(=O)[C@@]1(O)CC[C@H]2[C@@H]3C[C@H](C)C4=CC(=O)C=C[C@]4(C)[C@H]3[C@@H](O)C[C@@]21C,T/C,"dose: 7.5 mg/kg/injection, schedule: Q01DX007 (sc), vehicle: steriod suspending solution",122 % of control
same,T/C,"dose: 10.0 mg/kg/injection, schedule: Q01DX007 (sc), vehicle: steriod suspending solution",59 % of control
same,T/C,"dose: 11.3 mg/kg/injection, schedule: Q01DX007 (sc), vehicle: steriod suspending solution",93 % of control
same,T/C,"dose: 20.0 mg/kg/injection, schedule: Q01DX007 (sc), vehicle: steriod suspending solution",55 % of control
same,T/C,"dose: 27.0 mg/kg/injection, schedule: Q01DX007 (sc), vehicle: steriod suspending solution",41 % of control
same,T/C,"dose: 40.0 mg/kg/injection, schedule: Q01DX007 (sc), vehicle: steriod suspending solution",34 % of control
same,T/C,"dose: 44.4 mg/kg/injection, schedule: Q01DX007 (sc), vehicle: steriod suspending solution",26 % of control
same,T/C,"dose: 66.6 mg/kg/injection, schedule: Q01DX007 (sc), vehicle: steriod suspending solution",39 % of control
same,T/C,"dose: 100.0 mg/kg/injection, schedule: Q01DX007 (sc), vehicle: steriod suspending solution",40 % of control
CCCCCCCCCCCCCCCCCC1=NCCN1CCN,T/C,"dose: 22.0 mg/kg/injection, schedule: Q#A X014 (ip), vehicle: saline",74 % of control and 84 % of control
same,T/C,"dose: 50.0 mg/kg/injection, schedule: Q#A X014 (ip), vehicle: saline",33 % of control
O=CNC(Cc1ccc(N(CCCl)CCCl)cc1)C(=O)O (stereo not given),T/C,"dose: 22.0 mg/kg/injection, schedule: Q#A X014 (ip), vehicle: methylcellulose (MC)",61 % of control
same,T/C,"dose: 33.0 mg/kg/injection, schedule: Q#A X014 (ip), vehicle: methylcellulose (MC)",60 % of control
same,T/C,"dose: 50.0 mg/kg/injection, schedule: Q#A X014 (ip), vehicle: methylcellulose (MC)",25 % of control
same,T/C,"dose: 75.0 mg/kg/injection, schedule: Q#A X014 (ip), vehicle: methylcellulose (MC)",11 % of control
CC/C(=C(/CC)c1ccc(O)cc1)c1ccc(O)cc1,T/C,"dose: 19.69 mg/kg/injection, schedule: Q01DX007 (sc), vehicle: steriod suspending solution",54 % of control
same,T/C,"dose: 22.13 mg/kg/injection, schedule: Q01DX007 (sc), vehicle: steriod suspending solution",51 % of control
same,T/C,"dose: 24.0 mg/kg/injection, schedule: Q01DX007 (sc), vehicle: steriod suspending solution",51 % of control
same,T/C,"dose: 39.38 mg/kg/injection, schedule: Q01DX007 (sc), vehicle: steriod suspending solution",42 % of control
same,T/C,"dose: 44.25 mg/kg/injection, schedule: Q01DX007 (sc), vehicle: steriod suspending solution",60 % of control
same,T/C,"dose: 48.0 mg/kg/injection, schedule: Q01DX007 (sc), vehicle: steriod suspending solution",37 % of control
same,T/C,"dose: 70.8 mg/kg/injection, schedule: Q01DX007 (sc), vehicle: steriod suspending solution",80 % of control
same,T/C,"dose: 78.75 mg/kg/injection, schedule: Q01DX007 (sc), vehicle: steriod suspending solution",65 % of control
same,T/C,"dose: 96.0 mg/kg/injection, schedule: Q01DX007 (sc), vehicle: steriod suspending solution",30 % of control
same,T/C,"dose: 118.0 mg/kg/injection, schedule: Q01DX007 (sc), vehicle: steriod suspending solution",72 % of control
same,T/C,"dose: 157.5 mg/kg/injection, schedule: Q01DX007 (sc), vehicle: steriod suspending solution",52 % of control
same,T/C,"dose: 177.0 mg/kg/injection, schedule: Q01DX007 (sc), vehicle: steriod suspending solution",57 % of control
